Measurements from US4145554A, “3-Nitropyrazole derivatives” (Eli Lilly and Company, priority 1977, dated 1979).
≈ marks a conversion by molar mass, not a printed value. Read-outs that look alike come from different tables or passages of the source.

Key:
Vibrio coli 3811 = assay: in vitro tube dilution test (MIC); format: cell-based; settings: Campylobacter coli
From the text: (§1) The other preferred compounds of our invention have also been thoroughly tested in the in vitro tube dilution test.
(§2) Other compounds of our invention have also been tested in the tube dilution test and shown to have in vitro activity against a number of microorganisms. The table below reports tests of a number of exemplary compounds against exemplary microorganisms. The compounds are identified by their numbers in the listing above. The data are reported as the MIC in micrograms per milliliter against the named exemplary microorganisms.

Salmonella dublin = assay: in vitro tube dilution test (MIC); format: cell-based; settings: Salmonella enterica
From the text: as §1, §2

[1] = system: Staphylococcus aureus sp. 1130; assay: in vitro tube dilution test (MIC); format: cell-based
From the text: as §1, §2

Salmonella typhimurium = assay: Salmonellosis in chickens, single injection to day-old chicks; format: in vivo; settings: for responders at 60 mg/kg: Salmonella enterica, TYPHIMURIUM, 168 h; for chicks protected of the 5-bird treated group: salmonella challenge
Procedure: A number of our 3-nitropyrazoles have been tested against an induced infection of Salmonella typhimurium in day-old chicks. The test was conducted by administering a single injection of 60 mg./kg. of the compounds to each of five chicks. The following day, the chicks were challenged by the subcutaneous injection of a dispersion of S. typhimurium organisms sufficient to kill most or all of the untreated control chicks.
Some of the compounds were tested more than once, in which instances the data are reported as the total survivors from the multiple treatment groups. Untreated, challenged control groups of chicks were tested together with each batch of groups of chicks to which test compounds were administered. Since the mortality of the untreated control chicks varied somewhat from one group of tests to another, results of the untreated control groups are reported below with each test.

Mycoplasma gallisepticum = assay: in vitro tube dilution test (MIC); format: cell-based; settings: Mycoplasmoides gallisepticum
From the text: (§3) Our compound, 1-(2-hydroxyethyl)-3-nitro-4-pyrazolecarboxamide, has been extensively tested in vitro to determine the range of microorganisms against which it is active. The table of data below reports the minimum inhibitory concentration (MIC) at which the compound is effective in controlling a variety of microorganisms in a standard tube dilution test system. The MIC is reported as micrograms of compound per milliliter.
as §2

Escherichia coli = assay: in vitro tube dilution test (MIC); format: cell-based
From the text: as §3, §2

Pasteurella multocida = assay: in vitro tube dilution test (MIC); format: cell-based
From the text: as §3, §1, §2

Streptococcus sp. 80 = assay: in vitro tube dilution test (MIC); format: cell-based
From the text: as §2

E. coli = assay: Tests in mice, E. coli infection; format: in vivo; settings: for Days Survived: two subcutaneous doses of 83 mg./kg., 1 and 5 hours
Procedure: (§4) Groups of laboratory mice were inoculatd with E. coli or with Streptococcus pyogenes. The 3-nitropyrazoles were administered in two different modes to the infected mice. In one group of tests, the compound was administered in two subcutaneous doses of 83 mg./kg. each, given 1 and 5 hours after the mice were inoculated with the organism. The mice were observed, and the results reported below as the number of days the treated mice survived the challenge.
(§5) In the other group of tests, the dose of each compound which allowed 50 percent of the treated mice to survive the challenge was determined. Again, the compound was administered in subcutane divided doses, 1 and 5 hours post-inoculation.

Streptococcus pyogenes = assay: Tests in mice, Streptococcus pyogenes infection; format: in vivo; settings: S. pyogenes; for Days Survived: two subcutaneous doses of 83 mg./kg., 1 and 5 hours; for ED50: Streptococcus pyogenes, sc, subcutaneous, 1 and 5 hours post-inoculation
Procedure: as §4, §5

[2] = Vibrio coli 3811, tube dilution, read-out: MIC
[3] = Salmonella dublin, tube dilution, read-out: MIC
[4] = Staphylococcus aureus sp. 1130, tube dilution, read-out: MIC
[5] = single injection of 60 mg./kg., seven days, read-out: Survival (converted)
[6] = Mycoplasma gallisepticum, tube dilution, read-out: MIC
[7] = Streptococcus sp. 80, tube dilution, read-out: MIC

| Compound | MIC (Vibrio coli 3811; [2]) [µg/mL] | MIC (Salmonella dublin; [3]) [µg/mL] | MIC [1, 4] [µg/mL] | responders at 60 mg/kg (Salmonella typhimurium; [5]) [%] | MIC (Mycoplasma gallisepticum; [6]) [µg/mL] | MIC (Escherichia coli; tube dilution, read-out: MIC) [µg/mL] | MIC (Pasteurella multocida; tube dilution, read-out: MIC) [µg/mL] | MIC (Streptococcus sp. 80; [7]) [µg/mL] | further results |
| --- | --- | --- | --- | --- | --- | --- | --- | --- | --- |
| NC(=O)c1cn(CCCCl)nc1[N+](=O)[O-] [Compound 63, 1-(3-chloropropyl)-3-nitro-4-pyrazolecarboxamide] | 25 (≈ 107 µM) | 12.5 (≈ 53.7 µM) | 50 (≈ 215 µM) | 40 | 6.25 (≈ 26.9 µM) | 50 (≈ 215 µM) | 25 (≈ 107 µM) | > 50 |  |
| CC(C)n1cc(C(N)=O)c([N+](=O)[O-])n1 [Compound 64, 1-isopropyl-3-nitro-4-pyrazolecarboxamide] | > 50 | 12.5 (≈ 63.1 µM) | 50 (≈ 252 µM) | 60 | 50 (≈ 252 µM) | 25 (≈ 126 µM) | 50 (≈ 252 µM) | > 50 |  |
| CCS(=O)(=O)CCn1cc(C(N)=O)c([N+](=O)[O-])n1 [Compound 35, 1-(2-ethylsulfonylethyl)-3-nitro-4-pyrazolecarboxamide] | 50 (≈ 181 µM) | 50 (≈ 181 µM) | 3.12 (≈ 11.3 µM) | 80 | > 50 | 50 (≈ 181 µM) | 6.25 (≈ 22.6 µM) | 25 (≈ 90.5 µM) | Days Survived (E. coli): 1.0 days; Days Survived (Streptococcus pyogenes): 7.0 days; ED50 (Streptococcus pyogenes): 36.2 mg/kg |
| CCCCNC(=O)c1cn(CCO)nc1[N+](=O)[O-] [Compound 85, N-butyl-1-(2-hydroxyethyl)-3-nitro-4-pyrazolecarboxamide] | 50 (≈ 195 µM) | > 50 | > 50 |  | 3.12 (≈ 12.2 µM) | > 50 | > 50 | > 50 | chicks protected of the 5-bird treated group (Salmonella typhimurium): at least three chicks of the 5-bird treated group |
| NC(=O)c1cn(CCBr)nc1[N+](=O)[O-] [Compound 96, 1-(2-bromoethyl)-3-nitropyrazole-4-carboxamide] | 25 (≈ 95 µM) | 3.12 (≈ 11.9 µM) | < 1.56 | 100 | 25 (≈ 95 µM) | 6.25 (≈ 23.8 µM) | 12.5 (≈ 47.5 µM) | > 50 |  |
| CS(=O)(=O)CCn1cc(C(N)=O)c([N+](=O)[O-])n1 [Compound 66, 1-[2-(methylsulfonyl)ethyl]-3-nitro-4-pyrazolecarboxamide] | > 50 | > 50 | 25 (≈ 95.3 µM) | 40 | 50 (≈ 191 µM) | 50 (≈ 191 µM) | 12.5 (≈ 47.7 µM) | 25 (≈ 95.3 µM) |  |
| CC(C)NC(=O)c1cn(CCO)nc1[N+](=O)[O-] [Compound 88, 1-(2-hydroxyethyl)-N-isopropyl-3-nitro-4-pyrazolecarboxamide] | 50 (≈ 206 µM) | > 50 | > 50 |  | 3.12 (≈ 12.9 µM) | 50 (≈ 206 µM) | 6.25 (≈ 25.8 µM) | > 50 | Days Survived (E. coli): 4.8 days; Days Survived (Streptococcus pyogenes): 2.0 days |
| CCOC(Cn1cc(C(N)=O)c([N+](=O)[O-])n1)OCC [Compound 82, 1-(2,2-diethoxyethyl)-3-nitro-4-pyrazolecarboxamide] | 50 (≈ 184 µM) | 50 (≈ 184 µM) | 50 (≈ 184 µM) | 80 | 25 (≈ 91.8 µM) | 50 (≈ 184 µM) | 50 (≈ 184 µM) | 50 (≈ 184 µM) |  |
| CC(=O)Cn1cc(C(N)=O)c([N+](=O)[O-])n1 [Compound 9, 1-(2-oxopropyl)-3-nitro-4-pyrazolecarboxamide] | 6.25 (≈ 29.5 µM) | 6.25 (≈ 29.5 µM) | 6.25 (≈ 29.5 µM) | 100 | > 50 | 12.5 (≈ 58.9 µM) | > 50 | 50 (≈ 236 µM) |  |
| CC=CCn1cc(C(N)=O)c([N+](=O)[O-])n1 [Compound 75, 1-(2-butenyl)-3-nitro-4-pyrazolecarboxamide] | 12.5 (≈ 59.5 µM) | 25 (≈ 119 µM) | 12.5 (≈ 59.5 µM) | 60 | > 50 | 50 (≈ 238 µM) | 25 (≈ 119 µM) | > 50 |  |
| CCOCCn1cc(C#N)c([N+](=O)[O-])n1 [Compound 84, 1-(2-ethoxyethyl)-3-nitro-4-pyrazolecarbonitrile] | 25 (≈ 119 µM) | 50 (≈ 238 µM) | 50 (≈ 238 µM) | 80 | 50 (≈ 238 µM) | 50 (≈ 238 µM) | 25 (≈ 119 µM) | 50 (≈ 238 µM) |  |
| NC(=O)c1cn(C2C=CC(n3cc(C(N)=O)c([N+](=O)[O-])n3)C=C2)nc1[N+](=O)[O-] (centres unmarked) [Compound 59, 1,1'-(2,5-cyclohexadien-1,4-ylene)-bis(3-nitro-4-pyrazolecarboxamide)] |  |  |  |  |  |  |  |  | MIC (Vibrio coli 3811; 3811): 12.5 µg/mL (≈ 32.2 µM); MIC (Salmonella dublin): 3.12 µg/mL (≈ 8.04 µM); MIC ([1]; Staphylococcus aureus, SP.1130): 1.56 µg/mL (≈ 4.02 µM); chicks protected of the 5-bird treated group (Salmonella typhimurium): at least three chicks of the 5-bird treated group; MIC (Mycoplasma gallisepticum): 3.12 µg/mL (≈ 8.04 µM); MIC (Escherichia coli): 3.12 µg/mL (≈ 8.04 µM); MIC (Pasteurella multocida): 3.12 µg/mL (≈ 8.04 µM); MIC (Streptococcus sp. 80; Streptococcus, SP.80): > 50 µg/mL |
| NC(=O)c1cn(CCCl)nc1[N+](=O)[O-] [Compound 52, 1-(2-chloroethyl)-3-nitro-4-pyrazolecarboxamide] | 25 (≈ 114 µM) | 3.12 (≈ 14.3 µM) | > 1.56 | 80 | > 50 | 3.12 (≈ 14.3 µM) | 12.5 (≈ 57.2 µM) | 50 (≈ 229 µM) |  |
| NC(=O)c1cn(Cc2ccccc2)nc1[N+](=O)[O-] [Compound 18, 1-benzyl-3-nitro-4-pyrazolecarboxamide] | 50 (≈ 203 µM) | 12.5 (≈ 50.8 µM) | 6.25 (≈ 25.4 µM) | 70 | 6.25 (≈ 25.4 µM) | 12.5 (≈ 50.8 µM) | 12.5 (≈ 50.8 µM) | 50 (≈ 203 µM) |  |
| NC(=O)c1cn(CCCO)nc1[N+](=O)[O-] [Compound 62, 1-(3-hydroxypropyl)-3-nitro-4-pyrazolecarboxamide] | 12.5 (≈ 58.4 µM) | 3.12 (≈ 14.6 µM) | 50 (≈ 233 µM) | 70 | 1.56 (≈ 7.28 µM) | 6.25 (≈ 29.2 µM) | 6.25 (≈ 29.2 µM) | 50 (≈ 233 µM) |  |
| CNC(=O)c1cn(C)nc1[N+](=O)[O-] [Compound 61, N,1-dimethyl-3-nitro-4-pyrazolecarboxamide] |  | 50 (≈ 272 µM) | 50 (≈ 272 µM) | 70 | 12.5 (≈ 67.9 µM) | 50 (≈ 272 µM) |  | 50 (≈ 272 µM) | ED50 (E. coli; Escherichia coli, sc, subcutaneous, 1 and 5 hours post-inoculation): 68 mg/kg; Days Survived (Streptococcus pyogenes): 1.0 days; ED50 (Streptococcus pyogenes): > 83 mg/kg |
| NC(=O)OCCn1cc(C(N)=O)c([N+](=O)[O-])n1 [Compound 93, [2-(4-carbamoyl-3-nitropyrazol-1-yl)ethyl] carbamate] | 50 (≈ 206 µM) | 6.25 (≈ 25.7 µM) | 3.12 (≈ 12.8 µM) |  | 12.5 (≈ 51.4 µM) | 12.5 (≈ 51.4 µM) | < 1.56 | 6.25 (≈ 25.7 µM) | responders at 60 mg/kg (Salmonella typhimurium; read-out: Survival): 100% |
| N#Cc1cn(CCCCl)nc1[N+](=O)[O-] [Compound 83, 1-(3-chloropropyl)-3-nitro-4-pyrazolecarbonitrile] | 25 (≈ 116 µM) | > 50 | > 50 | 80 | 50 (≈ 233 µM) | > 50 | > 50 | > 50 |  |
